Measurements as given in patent US11242337B2, “Compounds useful for treating gastrointestinal tract disorders” (Ardelyx, Inc., priority 2017, dated 2022).

Experiments:
[1] = biological target: T1, NHE3 (Homo sapiens, UniProt P48764); experiment: Cell-based assay of NHE-3 activity (persistent inhibition), human; settings: human Persistence, 60 min incubation then washout
T1 construct: expressed in transfected cells
T1 sequence (P48764 26-834): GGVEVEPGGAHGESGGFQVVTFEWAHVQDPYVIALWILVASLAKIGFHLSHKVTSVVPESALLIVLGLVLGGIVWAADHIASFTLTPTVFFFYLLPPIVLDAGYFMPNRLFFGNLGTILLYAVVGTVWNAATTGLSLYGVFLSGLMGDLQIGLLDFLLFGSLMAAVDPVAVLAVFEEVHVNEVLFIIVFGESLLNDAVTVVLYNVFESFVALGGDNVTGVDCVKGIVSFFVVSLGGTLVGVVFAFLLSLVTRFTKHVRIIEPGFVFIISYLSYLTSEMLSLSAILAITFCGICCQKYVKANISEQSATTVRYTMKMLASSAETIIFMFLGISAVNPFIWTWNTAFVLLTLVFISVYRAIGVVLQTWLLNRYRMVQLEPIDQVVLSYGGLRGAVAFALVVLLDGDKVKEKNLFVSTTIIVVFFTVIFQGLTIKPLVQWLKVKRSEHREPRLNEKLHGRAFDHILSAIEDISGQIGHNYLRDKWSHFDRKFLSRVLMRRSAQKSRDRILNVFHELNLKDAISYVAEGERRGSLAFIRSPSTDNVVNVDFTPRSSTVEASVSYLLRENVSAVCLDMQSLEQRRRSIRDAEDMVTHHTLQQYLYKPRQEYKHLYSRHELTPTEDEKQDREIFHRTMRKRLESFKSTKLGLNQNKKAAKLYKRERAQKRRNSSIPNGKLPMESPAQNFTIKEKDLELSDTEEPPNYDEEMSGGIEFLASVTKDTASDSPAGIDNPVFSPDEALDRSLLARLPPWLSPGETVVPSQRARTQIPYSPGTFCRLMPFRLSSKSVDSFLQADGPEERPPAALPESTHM
T1 sequence (Q99653 2-195 partner limits assumed): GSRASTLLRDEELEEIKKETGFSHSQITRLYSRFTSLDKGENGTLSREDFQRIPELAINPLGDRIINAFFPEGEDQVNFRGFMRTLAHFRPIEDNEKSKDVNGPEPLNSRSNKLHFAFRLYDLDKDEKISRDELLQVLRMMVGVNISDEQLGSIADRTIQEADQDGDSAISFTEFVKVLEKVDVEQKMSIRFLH
Method: The ability of compounds to inhibit human and rat NHE-3-mediated Na^+ dependent H^+ antiport after application and washout was measured using a modification of the pH sensitive dye method described above. PS120 fibroblasts stably expressing human NHE3 and NHERF2 were obtained from Mark Donowitz (Baltimore, Md.). Opossum kidney (OK) cells were obtained from the ATCC and propagated per their instructions. The rat NHE-3 gene was introduced into OK cells via electroporation, and cells were seeded into 96 well plates and grown overnight. Medium was aspirated from the wells, cells were washed once with NaCl-HEPES buffer (100 mM NaCl, 50 mM HEPES, 10 mM glucose, 5 mM KCl, 2 mM CaCl2, 1 mM MgCl2, pH 7.4), then overlayed with NaCl-HEPES buffer containing 0-30 μM test compound. After a 60 min incubation at room temperature, the test drug containing buffer was aspirated from the cells. Following aspiration, cells were washed once with NaCl-HEPES buffer without drug, then incubated for 30 min at 37° C. with NH4Cl-HEPES buffer (20 mM NH4Cl, 80 mM NaCl, 50 mM HEPES, 5 mM KCl, 2 mM CaCl2, 1 mM MgCl2, pH 7.4) containing 5 μM BCECF-AM. Cells were washed once with Ammonium free, Na^+-free HEPES (100 mM choline, 50 mM HEPES, 10 mM glucose, 5 mM KCl, 2 mM CaCl2, 1 mM MgCl2, pH 7.4) and incubated in the same buffer for 10 minutes at room temperature to lower intracellular pH. NHE-3-mediated recovery of neutral intracellular pH was initiated (10 min after compound washout) by addition of Na-HEPES buffer. […] Changes in intracellular pH were monitored using a FLIPR Tetra® (Molecular Devices, Sunnyvale, Calif.) by excitation at λex 439 to 505 nm, and measuring BCECF fluorescence at λem 538 nm. The initial rate of the fluorescence ratio change was used as a measure of NHE-mediated Na^+/H^+ activity, and reported as the change in fluorescence ratio per minute.

[2] = biological target: T1, NHE3; experiment: Cell-based assay of NHE-3 activity (pre-incubation inhibition), human; settings: human Preincubation; for pIC50: 0-30 μM test compound
Method: Rat and human NHE-3-mediated Na^+-dependent H^+ antiport was measured using a modification of the pH sensitive dye method originally reported by Paradiso (Proc. Natl. Acad. Sci. USA. (1984) 81(23): 7436-7440). PS120 fibroblasts stably expressing human NHE3 and NHERF2 were obtained from Mark Donowitz (Baltimore, Md.). Opossum kidney (OK) cells were obtained from the ATCC and propagated per their instructions. The rat NHE-3 gene (GenBank M85300) was introduced into OK cells via electroporation, and cells were seeded into 96 well plates and grown overnight. Medium was aspirated from the wells then incubated for 30 min at 37° C. with NH4Cl-HEPES buffer (20 mM NH4Cl, 80 mM NaCl, 50 mM HEPES, 5 mM KCl, 2 mM CaCl2, 1 mM MgCl2, pH 7.4) containing 5 μM BCECF-AM. Cells were washed once with Ammonium free, Na^+-free HEPES (100 mM choline, 50 mM HEPES, 10 mM glucose, 5 mM KCl, 2 mM CaCl2, 1 mM MgCl2, pH 7.4) and incubated in the same buffer for 10 minutes at room temperature to lower intracellular pH with 0-30 μM test compound. […] Changes in intracellular pH were monitored using a FLIPR Tetra® (Molecular Devices, Sunnyvale, Calif.) by excitation at λex 439 to 505 nm, and measuring BCECF fluorescence at λem 538 nm. The initial rate of the fluorescence ratio change was used as a measure of NHE-mediated Na^+/H^+ activity, and reported as the change in fluorescence ratio per minute.

Cc1cc(S(=O)(=O)NCCOCCOCCNC(=O)NCCCCNC(=O)NCCOCCOCCNS(=O)(=O)c2ccc(O[C@H]3c4cc(Cl)cc(Cl)c4C[C@@H]3N3CCC[C@@H](N)C3)c(C)c2)ccc1O[C@H]1c2cc(Cl)cc(Cl)c2C[C@@H]1N1CCC[C@@H](N)C1 [Example 1, 1-[2-(2-[2-[(4-[[(1S,2S)-2-[(3R)-3-Aminopiperidin-1-yl]-4,6-dichloro-2,3-dihydro-1H-inden-1-yl]oxy]-3-methylbenzene)sulfonamido]ethoxy]ethoxy)ethyl]-3-[4-([[2-(2-[2-([4-[[(1S,2S)-2-[(3R)-3-aminopiperidin-1-yl]-4,6-dichloro-2,3-dihydro-1H-inden-1-yl]oxy]-3-methylbenzene)sulfonamido]ethoxy]ethoxy)ethyl]carbamoyl]amino)butyl]urea]
% inhibition [1]: B (40-70%) | pIC50 [1]: C (NHE3 pIC50 > 7) | % inhibition [2]: C (>70%) | pIC50 [2]: C (NHE3 pIC50 > 7)

N[C@@H]1CCCN([C@H]2Cc3c(Cl)cc(Cl)cc3[C@@H]2Oc2ccc(S(=O)(=O)NCCOCCOCCNC(=O)NCCCCNC(=O)NCCOCCOCCNS(=O)(=O)c3ccc(O[C@H]4c5cc(Cl)cc(Cl)c5C[C@@H]4N4CCC[C@@H](N)C4)c(F)c3)cc2F)C1 [Example 2]
% inhibition [1]: C (>70%) | % inhibition [2]: C (>70%)

Cc1cc(Cl)cc2c1C[C@H](N1CCC[C@@H](N)C1)[C@H]2Oc1ccc(S(=O)(=O)NCCOCCOCCNC(=O)NCCCCNC(=O)NCCOCCOCCNS(=O)(=O)c2ccc(O[C@H]3c4cc(Cl)cc(C)c4C[C@@H]3N3CCC[C@@H](N)C3)cc2)cc1 [Example 3, 3-[2-(2-[2-[(4-[[(1S,2S)-2-[(3R)-3-Aminopiperidin-1-yl]-6-chloro-4-methyl-2,3-dihydro-1H-inden-1-yl]oxy]benzene)sulfonamido]ethoxy]ethoxy)ethyl]-1-[4-([[2-(2-[2-[(4-[[(1S,2S)-2-[(3R)-3-aminopiperidin-1-yl]-6-chloro-4-methyl-2,3-dihydro-1H-inden-1-yl]oxy]benzene)sulfonamido]ethoxy]ethoxy)ethyl]carbamoyl]amino)butyl]urea]
% inhibition [1]: C (>70%) | % inhibition [2]: C (>70%)

N#Cc1cc(Cl)cc2c1C[C@H](N1CCC[C@@H](N)C1)[C@H]2Oc1ccc(S(=O)(=O)NCCOCCOCCNC(=O)NCCCCNC(=O)NCCOCCOCCNS(=O)(=O)c2ccc(O[C@H]3c4cc(Cl)cc(C#N)c4C[C@@H]3N3CCC[C@@H](N)C3)cc2)cc1 [Example 4, 3-[2-(2-[2-[(4-[[(1S,2S)-2-[(3R)-3-Aminopiperidin-1-yl]-6-chloro-4-cyano-2,3-dihydro-1H-inden-1-yl]oxy]benzene)sulfonamido]ethoxy]ethoxy)ethyl]-1-[4-([[2-(2-[2-[(4-[[(1S,2)-2-[(3R)-3-aminopiperidin-1-yl]-6-chloro-4-cyano-2,3-dihydro-1H-inden-1-yl]oxy]benzene)sulfonamido]ethoxy]ethoxy)ethyl]carbamoyl]amino)butyl]urea; bis(trifluoroacetic acid)]
% inhibition [1]: B (40-70%) | % inhibition [2]: B (40-70%)

COc1cc(Cl)cc2c1C[C@H](N1CCC[C@@H](N)C1)[C@H]2Oc1ccc(S(=O)(=O)NCCOCCOCCNC(=O)NCCCCNC(=O)NCCOCCOCCNS(=O)(=O)c2ccc(O[C@H]3c4cc(Cl)cc(OC)c4C[C@@H]3N3CCC[C@@H](N)C3)cc2)cc1 [Example 5, 3-[2-(2-[2-[(4-[[(1S,2S)-2-[(3R)-3-Aminopiperidin-1 yl]-6-chloro-4-methoxy-2,3-dihydro-1H-inden-1-yl]oxy]benzene)sulfonamido]ethoxy]ethoxy)ethyl]-1-[4-[[(2-(2-[2-[(4-[[(1S,2S)-2-[(3R)-3-aminopiperidin-1-yl]-6-chloro-4-methoxy-2,3-dihydro-1H-inden-1-yl]oxy]benzene)sulfonamido]ethoxy]ethoxy)ethyl]carbamoyl]amino)butyl]urea; bis(trifluoroacetic acid)]
% inhibition [1]: C (>70%) | % inhibition [2]: B (40-70%)

Cc1cc(S(=O)(=O)NCCOCCOCCNC(=O)NCCCCNC(=O)NCCOCCOCCNS(=O)(=O)c2ccc(O[C@H]3c4cc(Cl)cc(F)c4C[C@@H]3N3CCC[C@@H](N)C3)c(C)c2)ccc1O[C@H]1c2cc(Cl)cc(F)c2C[C@@H]1N1CCC[C@@H](N)C1 [Example 6]
% inhibition [1]: A (NHE3 < 40%) | pIC50 [1]: A (NHE3 pIC50 < 6) | % inhibition [2]: A (NHE3 < 40%) | pIC50 [2]: A (NHE3 pIC50 < 6)

Cc1cc(S(=O)(=O)NCCOCCOCCNC(=O)NCCCCNC(=O)NCCOCCOCCNS(=O)(=O)c2ccc(O[C@H]3c4cc(Cl)cc(C)c4C[C@@H]3N3CCC[C@@H](N)C3)c(C)c2)ccc1O[C@H]1c2cc(Cl)cc(C)c2C[C@@H]1N1CCC[C@@H](N)C1 [Example 7, 3-[2-(2-[2-[(4-[[(1S,2S)-2-[(3R)-3-Aminopiperidin-1-yl]-6-chloro-4-methyl-2,3-dihydro-1H-inden-1-yl]oxy]-3-methylbenzene)sulfonamido]ethoxy]ethoxy)ethyl]-1-[4-([[2-(2-[2-[(4-[[(1S,2S)-2-[(3R)-3-aminopiperidin-1-yl]-6-chloro-4-methyl-2,3-dihydro-1H-inden-1-yl]oxy]-3-methylbenzene)sulfonamido]ethoxy]ethoxy)ethyl]carbamoyl]amino)butyl]urea]
% inhibition [1]: C (>70%) | % inhibition [2]: C (>70%)

Cc1cc(S(=O)(=O)NCCOCCOCCNC(=O)NCCCCNC(=O)NCCOCCOCCNS(=O)(=O)c2ccc(O[C@H]3c4cc(Cl)cc(C#N)c4C[C@@H]3N3CCC[C@@H](N)C3)c(C)c2)ccc1O[C@H]1c2cc(Cl)cc(C#N)c2C[C@@H]1N1CCC[C@@H](N)C1 [Example 8, 3-[2-(2-[2-[(4-[[(1S,2S)-2-[(3R)-3-Aminopiperidin-1-yl]-6-chloro-4-cyano-2,3-dihydro-1H-inden-1-yl]oxy]-3-methylbenzene)sulfonamido]ethoxy]ethoxy)ethyl]-1-[4-([[2-(2-[2-[(4-[[(1S,2S)-2-[(3R)-3-aminopiperidin-1-yl]-6-chloro-4-cyano-2,3-dihydro-1H-inden-1-yl]oxy]-3-methylbenzene)sulfonamido]ethoxy]ethoxy)ethyl]carbamoyl]amino)butyl]urea; bis(trifluoroacetic acid)]
% inhibition [1]: A (NHE3 < 40%) | % inhibition [2]: A (NHE3 < 40%)
